Values of other authors in patent US20020031490A1, “Method for preparing resinates” (priority 2000, published 2002).

In the case of `COc1ccc2c(c1)c(CC(=O)O)c(C)n2C(=O)c1ccc(Cl)cc1` [indomethacin], the “solubility of indomethacin in water” value is given as 14 ppm.
